Molecules are shown by their SMILES.

Experiment [1] deals with T1, TrkB (h) (Homo sapiens, UniProt Q16620).
T1 construct: purchased
Briefly: Enzymatic activity test, TrkB (h). The experiment is classed as biochemical. As to conditions: 10 μM [γ-33P]-ATP, 40 minutes, room temperature. On the procedure: (§1) Assay 4: Enzymatic Activity Test of the Compound of the Present Invention
(§2) Test substances: the compounds of the present invention, wherein the structures and preparations thereof were as described above.
(§3) Preparation of the Compound Stock Solution
(§4) The compound was dissolved in 100% DMSO to prepare a stock solution with a maximum concentration of 500 μM.
(§5) Preparation of the Compound Working Solution
(§6) The compound stock solution was diluted to final concentrations of 500, 150, 50, 15. 5, 1.5, 0.5, 0.15 and 0.05 μM to become the compound working solutions (50×).
(§7) Preparation of Different Enzyme Reaction Solutions
The TrkB (h) enzyme was dissolved in 8 mM MOPS (pH 7.0), 0.2 mM EDTA, and 0.1 mg/mL poly(Glu, Tyr) 4:1 to prepare an enzyme solution having a final concentration of 3.1 nM. The enzymatic reaction was activated by using 10 mM magnesium acetate and 10 μM [γ-^33P]-ATP to form an Mg/ATP mixed solution,
(§8) In a 384-well plate, the compound working solution was added to final concentrations of 10000, 3000, 1000, 300, 100, 30, 10, 3, and 1 nM. Then different enzyme reaction solutions prepared according to the above conditions were added. The incubation was carried out for 40 minutes at room temperature. The test was terminated by the addition of a 0.5% phosphoric acid solution. 10 μL of the reaction solution was taken and dropped to the P30 filter paper. The filter paper was washed 4 times with 0.425% phosphoric acid solution and once with methanol, and then placed on a scintillation counter. The […] IC50 values were calculated using GraphPad 5.0 software.

The target in experiment [2] is T2, TrkA (h) (Homo sapiens, UniProt P04629).
T2 construct: purchased
T2 sequence (P04629 33-796): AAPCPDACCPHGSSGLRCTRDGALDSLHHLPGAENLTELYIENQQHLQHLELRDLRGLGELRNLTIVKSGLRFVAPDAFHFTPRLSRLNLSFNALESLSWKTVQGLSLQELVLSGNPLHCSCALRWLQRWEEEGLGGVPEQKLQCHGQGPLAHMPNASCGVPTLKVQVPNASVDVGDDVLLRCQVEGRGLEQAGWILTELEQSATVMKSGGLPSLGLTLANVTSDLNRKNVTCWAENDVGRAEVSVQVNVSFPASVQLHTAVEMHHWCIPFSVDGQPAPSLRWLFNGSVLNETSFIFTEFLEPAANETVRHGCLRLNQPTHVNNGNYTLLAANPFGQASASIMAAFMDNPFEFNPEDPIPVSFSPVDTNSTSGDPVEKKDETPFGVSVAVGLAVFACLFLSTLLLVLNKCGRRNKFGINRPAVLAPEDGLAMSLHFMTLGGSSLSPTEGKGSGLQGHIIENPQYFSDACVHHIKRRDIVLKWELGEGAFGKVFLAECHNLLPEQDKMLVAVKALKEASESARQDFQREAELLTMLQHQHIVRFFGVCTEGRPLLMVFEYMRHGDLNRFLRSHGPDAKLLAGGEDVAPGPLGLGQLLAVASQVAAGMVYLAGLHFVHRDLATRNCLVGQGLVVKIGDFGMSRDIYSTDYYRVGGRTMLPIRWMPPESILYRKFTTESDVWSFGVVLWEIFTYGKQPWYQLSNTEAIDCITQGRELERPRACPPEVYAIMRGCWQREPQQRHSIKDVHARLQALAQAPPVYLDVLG
As to the kind of experiment: Enzymatic activity test, TrkA (h). The experiment is classed as biochemical. As to conditions: 10 μM [γ-33P]-ATP, 40 minutes, room temperature. Here is the method:
as §1, §2, §3, §4, §5, §6, §7
The TrkA (h) enzyme was dissolved in 8 mM MOPS (pH 7.0), 0.2 mM EDTA, and 250 μM KKKSPGEYVNIEFG to prepare an enzyme solution having a final concentration of 1.7 nM. The enzymatic reaction was activated by using 10 mM magnesium acetate and 10 μM [γ-^33P]-ATP to form an Mg/ATP mixed solution.
as §8

For experiment [3], the target named is T3, Ba/F3 LMNA-NTRK1-V573M cells (Homo sapiens, UniProt P04629, V573M, cells depend on it).
T3 construct: Ba/F3 LMNA-NTRK1 G667C and Ba/F3 LMNA-NTRK1-V573M are NTRK1 gene mutant cells; fused on or other part: P02545 (Prelamin-A/C)
T3 sequence (P04629 whole entry V573M, the tested form may be a part): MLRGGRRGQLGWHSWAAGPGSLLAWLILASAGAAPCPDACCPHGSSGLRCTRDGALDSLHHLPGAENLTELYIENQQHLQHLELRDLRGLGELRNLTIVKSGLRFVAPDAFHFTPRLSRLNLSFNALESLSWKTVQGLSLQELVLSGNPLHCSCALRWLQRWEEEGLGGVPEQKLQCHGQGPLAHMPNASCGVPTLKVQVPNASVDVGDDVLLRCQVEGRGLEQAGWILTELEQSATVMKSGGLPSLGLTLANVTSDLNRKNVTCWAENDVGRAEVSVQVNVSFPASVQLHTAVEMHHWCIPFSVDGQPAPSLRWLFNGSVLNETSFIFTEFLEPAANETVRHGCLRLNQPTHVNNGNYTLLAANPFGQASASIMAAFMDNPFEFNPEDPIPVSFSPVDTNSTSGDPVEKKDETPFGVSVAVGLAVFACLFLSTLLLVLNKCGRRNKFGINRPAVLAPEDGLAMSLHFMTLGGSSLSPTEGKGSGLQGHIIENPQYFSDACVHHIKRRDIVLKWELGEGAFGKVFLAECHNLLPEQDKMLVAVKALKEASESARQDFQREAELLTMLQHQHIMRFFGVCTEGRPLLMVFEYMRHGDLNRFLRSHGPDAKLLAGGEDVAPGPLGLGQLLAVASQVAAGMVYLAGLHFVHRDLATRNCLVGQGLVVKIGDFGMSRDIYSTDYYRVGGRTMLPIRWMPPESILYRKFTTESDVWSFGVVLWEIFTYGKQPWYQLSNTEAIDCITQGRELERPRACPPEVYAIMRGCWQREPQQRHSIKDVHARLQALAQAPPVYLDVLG
Briefly: Cell viability test (CTG), Ba/F3 LMNA-NTRK1-V573M. In kind it is cell-based. As to conditions: NTRK1 gene mutant cell, 72 hours, read-out: IC50 Ba/F3 LMNA-NTRK1-V573M. The source says: (§9) Assay 8: Cell viability test of the compounds of the present invention
(§10) Ba/F3 LMNA-NTRK1 G667C and Ba/F3 LMNA-NTRK1-V573M are NTRK1 gene mutant cells.
(§11) Test substances: the compounds of the present invention, wherein the structures thereof were as described above.
(§12) Test instrument: SpectraMax multi-label microplate reader.
(§13) Each cell was inoculated in a 96-well plate and adherent cells were cultivated overnight. Different concentrations of the compounds (9 dose groups, 3.16 times DMSO serial dilution) were added to give the final concentration of 0.1-1000 nM, and the final DMSO content was 1‰. The negative control wells contained the medium containing 1‰ DMSO. The cells were incubated at 37° C. in a condition of 5% CO2 and 95% humidity for 72 hours for use. An equal volume of CTG reagent was added to each well, and the cells were lysed by shaking for 5 minutes on an orbital shaker, and incubated for 20 minutes at room temperature to stabilize the cold light signal. The cold light signal was read with a microplate reader. Data were analyzed using GraphPad Prism 5.0 software, and data were fitted using nonlinear S-curve regression to derive a dose-response curve and thereby calculate IC50 values.

For experiment [4], the target named is T4, Ba/F3 LMNA-NTRK1 cells (Homo sapiens, UniProt P04629).
T4 construct: fused on or other part: P02545 (Prelamin-A/C)
T4 sequence (P04629 whole entry, change not shown, the tested form may be a part): as the sequence (P04629 whole entry V573M, the tested form may be a part) above, with M573V counted along it
Briefly: Cell viability test (CTG), Ba/F3 LMNA-NTRK1. Particulars: NTRK1 wild type cell, 72 hours, read-out: IC50 Ba/F3 LMNA-NTRK1. In kind it is cell-based. Here is the method:
as §9
Ba/F3 LMNA-NTRK1 is an NTRK1 wild type cell;
as §11, §12, §13

In experiment [5] the target is T5, Ba/F3 ETV6-NTRK2 cells (Homo sapiens, UniProt Q16620).
T5 construct: fused on or other part: P41212 (Transcription factor ETV6)
T5 sequence (Q16620 whole entry, change not shown, the tested form may be a part): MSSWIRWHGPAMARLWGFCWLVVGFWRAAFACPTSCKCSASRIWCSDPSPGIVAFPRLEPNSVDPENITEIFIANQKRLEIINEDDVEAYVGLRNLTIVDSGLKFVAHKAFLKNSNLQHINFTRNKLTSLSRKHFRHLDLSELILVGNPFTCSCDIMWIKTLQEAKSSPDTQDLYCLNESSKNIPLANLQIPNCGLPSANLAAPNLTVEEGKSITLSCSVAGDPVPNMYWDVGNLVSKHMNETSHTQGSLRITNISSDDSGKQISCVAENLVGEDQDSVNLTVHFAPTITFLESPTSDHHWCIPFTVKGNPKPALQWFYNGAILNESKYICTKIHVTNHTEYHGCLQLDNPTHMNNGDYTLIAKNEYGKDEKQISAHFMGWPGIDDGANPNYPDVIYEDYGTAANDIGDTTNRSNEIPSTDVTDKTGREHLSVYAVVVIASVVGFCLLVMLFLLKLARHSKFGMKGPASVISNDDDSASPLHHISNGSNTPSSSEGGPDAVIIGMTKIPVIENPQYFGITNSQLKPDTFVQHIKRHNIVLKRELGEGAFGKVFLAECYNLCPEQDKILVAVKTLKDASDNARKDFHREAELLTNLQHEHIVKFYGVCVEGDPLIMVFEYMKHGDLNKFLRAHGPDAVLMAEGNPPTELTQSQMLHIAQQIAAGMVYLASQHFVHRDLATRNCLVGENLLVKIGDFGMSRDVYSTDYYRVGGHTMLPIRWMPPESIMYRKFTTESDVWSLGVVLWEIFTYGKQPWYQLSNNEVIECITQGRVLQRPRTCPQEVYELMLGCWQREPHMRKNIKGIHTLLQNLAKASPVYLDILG
As to the kind of experiment: Cell viability test (CTG), Ba/F3 ETV6-NTRK2. As to conditions: NTRK2 wild type cell, 72 hours, read-out: IC50 Ba/F3 ETV6-NTRK2. The experiment is classed as cell-based. On the procedure: as §9
Ba/F3 ETV6-NTRK2 is an NTRK 2 wild type cell;
as §11, §12, §13

Experiment [6] addresses T6, TrkC (h) (Homo sapiens, UniProt Q16288).
T6 construct: purchased
As to the kind of experiment: Enzymatic activity test, TrkC (h). In kind it is biochemical. Particulars: 10 μM [γ-33P]-ATP, 40 minutes, room temperature. On the procedure: as §1, §2, §3, §4, §5, §6, §7
The TrkC (h) enzyme was dissolved in 8 mM MOPS (pH 7.0), 0.2 mM EDTA, and 500 μM GEEPLYWSFPAKKK to prepare an enzyme solution having a final concentration of 38 nM. The enzymatic reaction was activated by using 10 mM magnesium acetate and 10 μM [γ-^33P]-ATP to form an Mg/ATP mixed solution.
as §8

The target in experiment [7] is T7, Ba/F3 LMNA-NTRK1 G667C cells (Homo sapiens, UniProt P04629, G667C, cells depend on it).
T7 construct: Ba/F3 LMNA-NTRK1 G667C and Ba/F3 LMNA-NTRK1-V573M are NTRK1 gene mutant cells; fused on or other part: P02545 (Prelamin-A/C)
T7 sequence (P04629 whole entry G667C, the tested form may be a part): as the sequence (P04629 whole entry V573M, the tested form may be a part) above, with M573V, G667C counted along it
Briefly: Cell viability test (CTG), Ba/F3 LMNA-NTRK1 G667C. The experiment is classed as cell-based. As to conditions: NTRK1 gene mutant cell, 72 hours, read-out: IC50 Ba/F3 LMNA-NTRK1 G667C.
Excerpt: as §9, §10, §11, §12, §13

Experiment [8] addresses T8, CSF1R (h) (Homo sapiens, UniProt P07333).
T8 construct: purchased
As to the kind of experiment: Enzymatic activity test, CSF1R (h). The experiment is classed as biochemical. Particulars: 10 μM [γ-33P]-ATP, 40 minutes, room temperature. On the procedure: Assay 3: Enzymatic Activity Test of the Compounds of the Present Invention
as §2
(1) Preparation of the Compound Stock Solution
as §4
(2) Preparation of the Compound Working Solution
The compound stock solution was diluted to final concentrations of 500, 150, 50, 15, 5, 1.5, 0.5, 0.15 and 0.05 μM to become the compound working solutions (50×).
(3) Preparation of Different Enzyme Reaction Solutions
The enzymatic reaction was activated by using 10 mM magnesium acetate and 10 μM [γ-^33P]-ATP to form an Mg/ATP mixed solution.
In a 384-well plate, the compound working solution was added to final concentrations of 10000, 3000, 1000, 300, 100, 30, 10, 3, and 1 nM. Then different enzyme reaction solutions prepared according to the above conditions were added. The incubation was carried out for 40 minutes at room temperature. The test was terminated by the addition of a 0.5% phosphoric acid solution. 10 μL of the reaction solution was taken and dropped to the P30 filter paper. […] The grayscale analysis of the results was performed using Image J software and the IC50 values were calculated using GraphPad 5.0 software.

T6 sequence (Q16288 32-839): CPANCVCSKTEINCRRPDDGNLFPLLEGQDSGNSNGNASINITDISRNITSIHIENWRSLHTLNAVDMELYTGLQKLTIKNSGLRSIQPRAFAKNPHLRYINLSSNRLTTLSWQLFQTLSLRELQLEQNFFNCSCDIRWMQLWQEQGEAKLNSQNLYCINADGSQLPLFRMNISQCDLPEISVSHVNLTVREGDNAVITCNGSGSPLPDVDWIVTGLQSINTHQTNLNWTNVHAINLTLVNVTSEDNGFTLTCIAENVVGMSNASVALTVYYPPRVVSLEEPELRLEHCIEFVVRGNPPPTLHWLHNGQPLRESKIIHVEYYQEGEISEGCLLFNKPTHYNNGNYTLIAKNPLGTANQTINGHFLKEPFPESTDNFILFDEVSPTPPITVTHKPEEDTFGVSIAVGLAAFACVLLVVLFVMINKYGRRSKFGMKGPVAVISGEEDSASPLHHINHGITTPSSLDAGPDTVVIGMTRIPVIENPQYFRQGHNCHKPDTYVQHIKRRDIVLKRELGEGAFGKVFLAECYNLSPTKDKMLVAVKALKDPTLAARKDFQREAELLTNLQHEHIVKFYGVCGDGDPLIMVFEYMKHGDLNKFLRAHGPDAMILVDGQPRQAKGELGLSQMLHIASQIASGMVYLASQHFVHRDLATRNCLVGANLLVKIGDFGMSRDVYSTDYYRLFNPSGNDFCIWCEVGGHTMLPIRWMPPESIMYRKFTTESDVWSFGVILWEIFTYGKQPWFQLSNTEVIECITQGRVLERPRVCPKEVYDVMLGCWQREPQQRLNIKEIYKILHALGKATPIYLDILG
T8 sequence (P07333 20-972): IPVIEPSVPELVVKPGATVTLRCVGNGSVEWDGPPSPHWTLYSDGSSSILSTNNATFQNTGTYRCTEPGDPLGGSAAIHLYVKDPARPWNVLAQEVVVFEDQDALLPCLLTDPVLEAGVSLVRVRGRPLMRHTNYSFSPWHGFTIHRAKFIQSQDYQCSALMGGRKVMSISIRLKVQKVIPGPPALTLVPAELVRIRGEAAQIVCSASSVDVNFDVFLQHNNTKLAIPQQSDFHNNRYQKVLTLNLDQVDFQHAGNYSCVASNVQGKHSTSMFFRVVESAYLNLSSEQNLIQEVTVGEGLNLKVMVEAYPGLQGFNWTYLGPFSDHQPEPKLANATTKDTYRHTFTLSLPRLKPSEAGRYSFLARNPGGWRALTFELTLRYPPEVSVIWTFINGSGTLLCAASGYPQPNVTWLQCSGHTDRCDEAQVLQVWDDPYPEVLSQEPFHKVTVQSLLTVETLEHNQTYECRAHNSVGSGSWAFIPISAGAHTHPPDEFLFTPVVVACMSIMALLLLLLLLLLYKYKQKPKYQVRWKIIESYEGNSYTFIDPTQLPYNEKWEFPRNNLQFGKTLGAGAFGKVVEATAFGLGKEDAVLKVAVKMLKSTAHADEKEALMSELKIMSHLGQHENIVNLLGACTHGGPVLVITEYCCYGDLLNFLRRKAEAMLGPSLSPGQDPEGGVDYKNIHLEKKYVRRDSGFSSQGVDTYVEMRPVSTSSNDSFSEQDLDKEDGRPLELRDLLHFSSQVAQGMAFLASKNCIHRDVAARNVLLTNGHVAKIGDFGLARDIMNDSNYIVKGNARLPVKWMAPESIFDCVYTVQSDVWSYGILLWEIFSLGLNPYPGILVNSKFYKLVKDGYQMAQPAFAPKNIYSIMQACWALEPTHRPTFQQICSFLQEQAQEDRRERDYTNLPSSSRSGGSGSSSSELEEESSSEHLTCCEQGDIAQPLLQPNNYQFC
T1 sequence (Q16620 32-822): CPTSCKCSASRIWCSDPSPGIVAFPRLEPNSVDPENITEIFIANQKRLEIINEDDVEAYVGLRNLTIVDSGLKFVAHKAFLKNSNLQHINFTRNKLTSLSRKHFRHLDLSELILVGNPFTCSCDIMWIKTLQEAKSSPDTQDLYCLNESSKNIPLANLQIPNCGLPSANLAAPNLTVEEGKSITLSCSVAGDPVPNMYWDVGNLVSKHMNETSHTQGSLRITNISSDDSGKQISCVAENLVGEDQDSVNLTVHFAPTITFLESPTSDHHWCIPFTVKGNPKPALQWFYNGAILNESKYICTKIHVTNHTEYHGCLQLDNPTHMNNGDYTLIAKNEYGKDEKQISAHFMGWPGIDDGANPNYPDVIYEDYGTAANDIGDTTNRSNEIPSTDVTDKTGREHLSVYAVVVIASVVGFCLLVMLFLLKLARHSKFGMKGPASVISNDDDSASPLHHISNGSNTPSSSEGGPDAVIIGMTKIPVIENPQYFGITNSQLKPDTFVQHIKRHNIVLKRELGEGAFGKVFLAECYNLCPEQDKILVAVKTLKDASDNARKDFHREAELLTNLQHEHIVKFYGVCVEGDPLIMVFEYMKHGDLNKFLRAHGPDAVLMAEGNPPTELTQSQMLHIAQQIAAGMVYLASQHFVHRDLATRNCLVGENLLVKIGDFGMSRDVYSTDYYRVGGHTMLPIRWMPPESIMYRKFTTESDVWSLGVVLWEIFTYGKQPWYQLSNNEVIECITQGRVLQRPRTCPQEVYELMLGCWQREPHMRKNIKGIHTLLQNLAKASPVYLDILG

As to `COc1cc2nccc(Oc3ccc(NC(=O)c4nn(C(C)C)cc(-c5ccc(F)cc5)c4=O)nc3)c2cc1OC` [Compound 15, N-(5-((6,7-dimethoxyquinolin-4-yl)oxy)pyridin-2-yl)-5-(4-fluorophenyl)-1-isopropyl-4-oxo-1,4-dihydropyridazine-3-carboxamide], the IC50 in experiment [1] turned out to be 3 nM; in experiment [2] it was 6 nM; in experiment [6], 6 nM; in experiment [8] it was 38 nM. The GI50 in experiment [3] came out at 0.51 nM; in experiment [4] it was 3.28 nM; in experiment [5], 16.4 nM; in experiment [7], 0.09 nM.
On to `COc1cc2nccc(Oc3ncc(NC(=O)c4nn(C(C)C)cc(-c5ccc(F)cc5)c4=O)cn3)c2cc1OC` [Compound 34, N-(2-((6,7-dimethoxyquinolin-4-yl)oxy)pyrimidine-5-yl)-5-para-fluorophenyl-1-isopropyl-4-oxo-1,4-dihydropyridazine-3-carboxamide], for which the IC50 in experiment [1] was 3 nM; in experiment [2], 5 nM; in experiment [6], 6 nM; in experiment [8], 161 nM. Besides, the GI50 in experiment [3] stood at 2.7 nM; in experiment [4], 14.3 nM; in experiment [5], 109 nM; in experiment [7], 0.68 nM.
With `COc1cc2nccc(Oc3cnc(NC(=O)c4cn(C(C)C)nc(-c5ccc(F)cc5)c4=O)nc3)c2cc1OC` [Compound 39, N-(5-((6,7-dimethoxyquinolin-4-yl)oxy)pyrimidine-2-yl)-6-(4-fluorophenyl)-2-isopropyl-5-oxo-2,5-dihydropyridazine-4-carboxamide], the IC50 came to 17 nM in experiment [1], 18 nM in experiment [2], 10 nM in experiment [6] and 34 nM in experiment [8]. In addition, the values for the GI50 in experiment [3], in experiment [4] and in experiment [7] were 5 nM, 42.4 nM and 8.1 nM, respectively.

The record behind these values is patent US20220073496A1, “NOVEL QUINOLINE DERIVATIVE INHIBITOR” (Nanjing Transthera Biosciences Co., Ltd., priority 2018, published 2022).
